# Square brackets hold non-standard residues; d marks the D form. Ends that are not written are not given here. pY = N[C@@H](Cc1ccc(OP(=O)(O)O)cc1)C(=O)O
# Experiments:
# Format in all cases: cell-based
# [1] = test system: ex vivo grown human hair follicles; assay: Activation of ex vivo cultured hair follicles (hair bulb area image analysis, histology, Ki67); details: for proliferation and differentiation of the hair bulb area (hair follicle activation): combination of PT (mALA and red light), 24 hours after treatments
# Procedure: Human hair follicles were obtained from human scalp samples taken from the occipital skin of volunteer donors during a hair transplant procedure. Eligible patients provided written informed consent, and the Ethical committee of the Ramon y Cajal Hospital approved this procedure.
# Follicular units (FUs) were dissected using scalpels under a magnifier, and the ones in resting phase (telogen) were selected. Those FUs were transferred to the laboratory and maintained at 4 °C until processed in Williams' medium E (Sigma) supplemented with 10x Penicilin/Streptomycin, 10x Aphotericin B, and 2 mM L-Glutamin (all from Gibco), 5 µg/ml Insulin, 5 µg/ml transferring, 20 pM T3 hormone, 0.083 µg/ml cholera toxin and 0.4 µg/ml hydrocortisone. FUs can be stored in complete Williams' medium at 4 °C for approximately 5 days without significant loss of the mini organ function. FU cultures were maintained at 37°C in a 5% CO2 humidified atmosphere.
# Endogenous protoporphyrin IX (PpIX)-dependent photodynamic treatments (PT) were routinely performed on exponentially growing cells at 60% of confluence, as well as in ex vivo cultured hair follicles (HF) (Carrasco E et al. Methods 15:109, 2016; Calvo-Sanchez MI et al. Sci. Rep.9:4509, 2019). To that end, cells and HFs were incubated for 2-4 hours, normally 2 hours, with 0.1 mM of a PpIX metabolic precursor (typically, aminolevulinic acid ALA, or the ALA methylated derivative methyl aminolevulinate mALA) in the corresponding medium in the absence of serum or growth factors. Immediately, approximately 1 minute, after the incubation step the samples were further irradiated 2-15 min, normally between 8 and 10 minutes, with a red-light emitting diode source with an emission peak at 634 nm bandwidth, with a total light dose of 2-10 J/cm^2, normally 4 J/cm^2 (Carrasco E et al. Methods 15:109, 2016; Calvo-Sanchez MI et al. Sci. Rep.9:4509, 2019). […] Additionally, total controls in strict dark conditions (no PpIX precursor, no light) were evaluated for each biological model, although this control was not routinely used in experimental series since ambient light is an unavoidable contaminant, and the light control is the most adequate in this experimental design.
# For the quantification of the number of cells in cell cultures after different treatments, a Bio-Rad TC20™ automated cell counter was used following the instructions of the manufacturer. […] Image acquisition was performed using a Nikon Eclipse Ci LED-fluorescence microscope using a 2x objective and a 0.55x Reduction Lens adapter coupled to a Jenoptik PROGRES GRYPHAX® SUBRA Super HD camera and suited Version 1.1.8.153 image software pack. […] Total hair bulb area in high resolution images of whole hair follicles was spotted and quantified using suited free FIJI software packs (https://fiji.sc/). […]
# [2] = test system: mouse E14 embryonic stem cells; assay: Cell proliferation (automated cell counting), with or without phototreatment; details: for enhancement of PT-induced cell proliferation: PT (mALA and red light) combined with YEEI phosphopeptide and/or S-Eng, 48 hours after irradiation
# Procedure: (§1) E14 cell line is a derivative of mice embryonic stem cells (ES) obtained from the Inner Cell Mass of 129/Ola mouse strain blastocyst. E14 cells were grown on 0,1% gelatin-coated flasks in GMEM supplemented with 10% FCS tested for stem cells, 0.1 mM mixture of Non Essential Amino acids (NEAA, composed by Glycine, L-Alanine, L-Asparagine, L-Aspartic Acid, L-Glutamic acid, L-Proline and L-Serine), 2 mM L-Glutamine, 1 mM sodium pyruvate, 0.05 mM β-mercaptoethanol, Penicilin/Streptomicin (100 U/ml / 100 µg/ml) and 2.5 µg/ml amphotericin B (all from Gibco) and 1,000 U/ml LIF (Millipore), and splitted 1:8 to 1:10 every 2-3 days using Trypsin-EDTA (Invitrogen) (Smith, 1991; Cambray et al, 2012). Cells were maintained at 37°C in a 5% CO2 humidified atmosphere. The medium was changed on alternative days.
# Endogenous protoporphyrin IX (PpIX)-dependent photodynamic treatments (PT) were routinely performed on exponentially growing cells at 60% of confluence, as well as in ex vivo cultured hair follicles (HF) (Carrasco E et al. Methods 15:109, 2016; Calvo-Sanchez MI et al. Sci. Rep.9:4509, 2019). […] Additionally, total controls in strict dark conditions (no PpIX precursor, no light) were evaluated for each biological model, although this control was not routinely used in experimental series since ambient light is an unavoidable contaminant, and the light control is the most adequate in this experimental design.
# (§2) Here the functional activation of the cSrc kinase has been specifically associated with the phosphorilation of the Tyr419 residue (or equivalent) of the cSrc protein (Espada J and Martin-Perez J. Int Rev Cell Mol Biol 331:82, 2017). […] The biological activity of each YEEI phosphopeptide batch was evaluated by immunoblot detection of cSrc-Tyr419 levels in protein extracts obtained from treated cell cultures (see Figure 1) […]
# cSrc kinase = assay: cSrc Tyr419 phosphorylation by immunoblot in treated cell cultures; details: mouse E14 embryonic stem cells; peptide 100 nM; Figure 1A
# Procedure: as §1, §2
# [3] = test system: human primary skin fibroblasts; assay: Cell proliferation (automated cell counting), with or without phototreatment; details: for enhancement of PT-induced cell proliferation: human primary fibroblasts, 48 hours after irradiation
# Procedure: Primary cultures of human fibroblasts were obtained from normal human skin. Collection of skin biopsy punches, 4mm diameter, from volunteer donors was routinely performed in the Dermatology Service of the Ramon y Cajal University Hospital, Madrid, Spain, following the regulations of the hospital ethics committee for human research, eligible patients providing written informed consent.
# Skin samples were transferred to the laboratory and maintained at 4 °C in DMEM medium (Gibco) with 10x Penicilin/Streptomycin and 10x Aphotericin B until processed, not exceeding 24h. Then, the subcutaneous layer was removed using scalpels, and skin biopsies were cut in small pieces of 1-4 mm^2. In order to obtain primary fibroblasts, skin pieces were incubated in 1mg/ml of collagenase A enzyme (Roche) solution for 4 hours at 37 °C, in mild agitation in order to help cell dissociation.
# The supernatant containing the fibroblasts was vigorously pipetted and diluted in DMEM medium supplemented with 10% FCS, 2 mM L-Glutamine, Penicilin/Streptomicin (100 U/ml / 100 µg/ml) and 2.5 µg/ml amphotericin B and centrifuged for five minutes at 1500 RPM. The pellet was resuspended in complete DMEM medium and the fibroblasts were seeded in a maximum density of 1 million cells per ml using a 24 well plate and routinely grown at 37°C in a humidified atmosphere containing CO2 5%. 24 hours later, medium was removed to eliminate all detached cells. The cells were passaged when they reached 70-80% confluency, in order to prevent differentiation. The primary culture reached appropriate confluence after 8 to 10 days, and the derivative subcultures were splitted 1:4 once a week. After 10 to 20 passages, cells undergo senescence.
# Endogenous protoporphyrin IX (PpIX)-dependent photodynamic treatments (PT) were routinely performed on exponentially growing cells at 60% of confluence, as well as in ex vivo cultured hair follicles (HF) (Carrasco E et al. Methods 15:109, 2016; Calvo-Sanchez MI et al. Sci. Rep.9:4509, 2019). To that end, cells and HFs were incubated for 2-4 hours, normally 2 hours, with 0.1 mM of a PpIX metabolic precursor (typically, aminolevulinic acid ALA, or the ALA methylated derivative methyl aminolevulinate mALA) in the corresponding medium in the absence of serum or growth factors. Immediately, approximately 1 minute, after the incubation step the samples were further irradiated 2-15 min, normally between 8 and 10 minutes, with a red-light emitting diode source with an emission peak at 634 nm bandwidth, with a total light dose of 2-10 J/cm^2, normally 4 J/cm^2 (Carrasco E et al. Methods 15:109, 2016; Calvo-Sanchez MI et al. Sci. Rep.9:4509, 2019). Immediately after irradiation, approx. 1 minute after, samples were washed in PBS, fresh medium was added, and were further routinely grown at 37°C in a humidified atmosphere containing CO2 5%. When required, activators of cSrc kinase or inhibitors of Eng function (see below) were added, alone or in combination, in the fresh medium used immediately after irradiation, and samples were subsequently incubated for the indicated times. […] Additionally, total controls in strict dark conditions (no PpIX precursor, no light) were evaluated for each biological model, although this control was not routinely used in experimental series since ambient light is an unavoidable contaminant, and the light control is the most adequate in this experimental design. […]
Compound,"time after PT at which HF activation is evident ([1]; PT using mALA and red light, compared to control, Figure 6) [days]","time after treatment at which activation occurs ([1]; photodynamic treatment with mALA and red light, Figures 6 and 7)","induction of cell proliferation ([2]; 48 hours after treatments, peptide alone, Figure 1B)",enhancement of PT-induced cell proliferation ([2]; Figure 3),"enhancement of PT-induced cell proliferation ([2]; Figure 3, listed as YEEI peptide)",Tyr419 cSRC phosphorilation (cSrc kinase),"proliferation and differentiation of the hair bulb area (hair follicle activation) ([1]; YEEI phosphopeptide and Apt1 or Apt2, Figure 9)","proliferation and differentiation of the hair bulb area (hair follicle activation) ([1]; YEEI phosphopeptide and siRNA of SEQ ID NO 2, Figure 8)","enhancement of PT-induced cell proliferation ([3]; PT (mALA and red light) combined with YEEI phosphopeptide and/or Apt1 or Apt2, Figure 5)","enhancement of PT-induced cell proliferation ([3]; PT (mALA and red light) combined with YEEI phosphopeptide and/or Apt1 or Apt2, Figure 5, listed as YEEI peptide)","enhancement of PT-induced cell proliferation ([3]; PT (mALA and red light) combined with YEEI phosphopeptide and/or siRNA of SEQ ID NO 2, Figure 4)","enhancement of PT-induced cell proliferation ([3]; PT (mALA and red light) combined with YEEI phosphopeptide and/or siRNA of SEQ ID NO 2, Figure 4, listed as YEEI peptide)","induction of cell proliferation ([3]; human primary skin fibroblasts, 48 hours after treatments, peptide alone, Figure 1B)"
"COC(=O)CCC(=O)CN [mALA, methyl aminolevulinate]",5,approximately 5 days,–,–,–,–,–,–,–,–,–,–,–
Glu-Pro-Gln-Tyr(PO3H2)-Glu-Glu-Ile-Pro-Ile-Tyr-Leu (EPQ[pY]EEIPIYL) [YEEI phosphopeptide],–,–,statistically significant induction,significantly enhanced,markedly enhanced,induced,significantly promotes,significantly promotes,significantly enhanced,markedly increased,significantly enhanced,markedly increased,statistically significant induction
